According to article PMC6331730 (The EMBO Journal, 2018):
pIC50: −log10 of the molar value.

System: Purified tubulin with GST-tagged CPAP PN2-3 (pull-down)
Experiment: GST-PN2-3 pull-down, semi-quantitative Western blot
Format: binding
Conditions: protein-protein interaction inhibition

COc1ncc2cc3ccccc3nc2c1C#N [CCB02, 3‐Methoxybenzo[b][1,6]naphthyridine‐4‐carbonitrile]
pIC50: ~6.36
